Results reported in US4225619A, “Substituted fluoracylresorcinols” (Boehringer Ingelheim GmBH, priority 1976, dated 1980).
Values after ≈ are worked out from the molar mass of the structure shown. Read-outs that look alike come from different tables or passages of the source. Each block holds one compound with its values, some of them ahead of it.

Key:
Pityrosporum ovale = assay: Serial dilution test for Pityrosporum ovale; format: cell-based; details: Malassezia furfur, 168 h, 27° C. for 7 days, read-out: MIC, S.D.T., Pityrosporum ovale
Protocol: (§1) Serial dilution test for Corynebacterium acnes and Pityrosporum ovale Nutrient medium
(§2) For Corynebacterium acnes: thioglycolate-broth for Pityrosporum ovale: Littmann's broth, 5 ml per tube.
(§3) Suspension of microorganisms in 0.9% sodium chloride solution, standardized using a photometer according to Eppendorf by means of a suspension for comparison consisting of barium sulfate, for Corynebacterium acnes in a dilution of 1:100, for Pityrosporum ovale in an undiluted state. 0.1 ml of the suspensions was used per test tube. Dimethyl sulfoxide served as a solvent for the substances.
(§4) The suspension with Corynebacteria acnes was incubated at 37° C. for 48 hours, the suspension of Pityrosporum ovale at 27° C. for 7 days. The reading was effected by macroscopic evaluation of the growth of microorganisms and registration of the minimal inhibitory concentration.

[1] = test system: Pityrosporum ovale CBS 1878; assay: Agar diffusion test for Pityrosporum ovale CBS 1878; format: cell-based; details: Malassezia furfur, CBS1878, 168 h, 7 days at 27° C., read-out: MIC, A.D.T., Pityrosporum ovale
Protocol: Agar diffusion test for Pityrosporum ovale CBS 1878 Nutrient medium
Littmann's agar, 23 ml per Petri dish, diameter of dish 100 mm.
Suspension of microorganisms in 0.9% sodium chloride solution, standardized using a photometer according to Eppendorf by means of a suspension for comparison consisting of barium sulfate. 0.05 ml per plate were used. The test substances were dissolved in dimethyl sulfoxide. The incubation time was 7 days at 27° C.; the area of inhibition in mm was measured, 0.05 ml of the solution of the substance were used for each punch-hole of a diameter of 6 mm. The results of these tests are recorded in the following tables 1 and 2: […]

[2] = test system: Trichophyton mentagrophytes AT CC 9129; assay: Serial dilution test; format: cell-based; details: ATCC9129, 168 h, 27° C. for 7 days, read-out: MIC, S.D.T., Trichophyton mentagrophytes
Protocol: (§5) The inhibitory effect on bacteria and fungi was examined by the serial dilution test and the agar diffusion test (hole-test). As bacteria were used: Staphylococcus aureus SG 511, Streptococcus Aronson, Streptococcus pyogenes At CC 86 68; as fungi: Candida albicans AT CC 10231, Trichophyton mentagrophytes AT CC 9129 and Aspergillus niger.
(§6) 3. Sabouraud broth: for C. alb., Trich. mnt., A. niger
(§7) The age of the primary cultures is 24 hours for bacteria and 14 days for fungi. The standardization of the suspension of microorganisms is effected using a photometer according to Eppendorf (test tube .phi.14 mm, filter 546 nm) and a suspension for comparison consisting of barium sulfate, this suspension being created by adition of 3.0 ml of 1% barium chloride solution to 97 ml of 1% sulfuric acid. After the standardization the bacteria were further diluted to a concentration of 1:1000 by means of sodium chloride solution, the fungi were used in an undiluted state.
(§8) 40 mgm of the substance were put into a 10 ml measuring flask and filled up to the mark with the solvent (corresponds to a dilution of 1:250=4000 μg/ml). The further dilution series was standardized with distilled water or the respective solvent and the following substance concentrations were prepared: 1000; 250; 62.5 μg/ml.
(§9) The tubes were filled with 4.9 ml of the corresponding liquid nutrient medium. Then 0.1 ml of the substance dilution prepared above was added to each tube, so that the mentioned final concentrations were present. Finally each tube was inoculated with 0.1 ml of the standardized suspension of microorganisms. Control tests merely using the solvent are to be carried out simultaneously.
(§10) Bacteria were incubated at 37° C. for 18-20 hours and fungi at 27° C. for 7 days.
(§11) The measurement is carried out macroscopically defining the minimal inhibitory concentration (the lowest still microbiostatically effective concentration).

Aspergillus niger [3] = assay: Serial dilution test; format: cell-based; details: Aspergillus niger, 168 h, 27° C. for 7 days, read-out: MIC, S.D.T., Aspergillus niger
Protocol: as §5, §6, §7, §8, §9, §10, §11

[4] = test system: Candida albicans AT CC 10231; assay: Serial dilution test; format: cell-based
Protocol: as §5, §6, §7, §8, §9, §10, §11

[5] = test system: Trichophyton mentagrophytes AT CC 9129; assay: Agar diffusion test (hole-test); format: cell-based; details: ATCC9129, 168 h, 27° C. for 7 days, read-out: MIC, A.D.T., Trichophyton mentagrophytes
Protocol: as §5
(§12) 3. Sabouraud agar: for C. alb., Trich. ment., A. niger
as §7, with “addition” for “adition”, “St. aureus SG 511 was” for “the bacteria were further”, “diluted” for “diluted to a concentration of”, “1:1000 and Sc. pyogenes and Aronson 1:100” for “1:1000”, “solution. The” for “solution, the”
(§13) 40 mgm of the substance were put into a 10 ml measuring flask and filled up to the mark with the solvent (corresponds to a dilution of 1:250=4000 μg/ml).
(§14) The dilutions to the concentrations under test were effected with distilled water or the respective solvent.
(§15) 19 ml of the nutrient medium were filled into sterile Petri dishes of a diameter of 8 cm and dried. Subsequently the agar plates were charged with 4 ml of seed agar. 100 ml of seed agar contain 1.25 ml of the suspension of microorganisms, an agar plate thus containing 0.05 ml of the suspension of microorganisms. After solidification of the agar, 5 holes of a diameter of 5 mm were punched into the plates and filled with 0.05 ml of the correspondingly concentrated substance solution.
(§16) Control tests merely using the solvent are to be carried out simultaneously.
as §10
(§17) The diameter of the area of inhibition in mm was measured after having deducted the diameter of the hole.

Aspergillus niger [6] = assay: Agar diffusion test (hole-test); format: cell-based; details: 168 h, 27° C. for 7 days, read-out: MIC, A.D.T., Aspergillus niger
Protocol: as §5, §12
as §7, with “addition” for “adition”, “St. aureus SG 511 was” for “the bacteria were further”, “diluted” for “diluted to a concentration of”, “1:1000 and Sc. pyogenes and Aronson 1:100” for “1:1000”, “solution. The” for “solution, the”
as §13, §14, §15, §16, §10, §17

[7] = test system: Candida albicans AT CC 10231; assay: Agar diffusion test (hole-test); format: cell-based; details: ATCC10231, 168 h, 27° C. for 7 days, read-out: MIC, A.D.T., Candida albicans
Protocol: as §5, §12
as §7, with “addition” for “adition”, “St. aureus SG 511 was” for “the bacteria were further”, “diluted” for “diluted to a concentration of”, “1:1000 and Sc. pyogenes and Aronson 1:100” for “1:1000”, “solution. The” for “solution, the”
as §13, §14, §15, §16, §10, §17

Corynebacterium acnes = assay: Serial dilution test for Corynebacterium acnes; format: cell-based; details: Cutibacterium acnes, 37° C. for 48 hours, read-out: MIC, S.D.T., Corynebacterium acnes
Protocol: as §1, §2, §3, §4

Streptococcus Aronson [8] = assay: Agar diffusion test (hole-test); format: cell-based; details: 18-20 hours at 37° C., read-out: MIC, A.D.T., Streptococcus Aronson
Protocol: as §5
(§18) 2. Glucose agar: for Sc. Aronson and St. pyogenes Recipe see meat extract agar. After sterilization 1 weight percent of glucose is added as a sterile 50% solution.
as §7, with “addition” for “adition”, “St. aureus SG 511 was” for “the bacteria were further”, “diluted” for “diluted to a concentration of”, “1:1000 and Sc. pyogenes and Aronson 1:100” for “1:1000”, “solution. The” for “solution, the”
as §13, §14, §15, §16, §10, §17

[9] = test system: Streptococcus pyogenes At CC 86 68; assay: Agar diffusion test (hole-test); format: cell-based; details: ATCC8668, 18-20 hours at 37° C., read-out: MIC, A.D.T., Streptococcus pyogenes
Protocol: as §5, §18
as §7, with “addition” for “adition”, “St. aureus SG 511 was” for “the bacteria were further”, “diluted” for “diluted to a concentration of”, “1:1000 and Sc. pyogenes and Aronson 1:100” for “1:1000”, “solution. The” for “solution, the”
as §13, §14, §15, §16, §10, §17

[10] = test system: Staphylococcus aureus SG 511; assay: Serial dilution test; format: cell-based; details: Staphylococcus aureus, SG511, 18-20 hours at 37° C., read-out: MIC, S.D.T., Staphylococcus aureus SG 511
Protocol: as §5
1. Meat extract broth: for St. aureus SG 511
as §7, §8, §9, §10, §11

[11] = test system: Staphylococcus aureus SG 511; assay: Agar diffusion test (hole-test); format: cell-based; details: SG511, 18-20 hours at 37° C., read-out: MIC, A.D.T., Staphylococcus aureus SG 511
Protocol: as §5
1. Meat extract agar: for St. aureus SG 511
as §7, with “addition” for “adition”, “St. aureus SG 511 was” for “the bacteria were further”, “diluted” for “diluted to a concentration of”, “1:1000 and Sc. pyogenes and Aronson 1:100” for “1:1000”, “solution. The” for “solution, the”
as §13, §14, §15, §16, §10, §17

skin = assay: Compatibility on the skin under occlusion; format: in vivo; details: cream containing 10%; over 24 hours under occlusion
[12] = Acute toxicity in mice (LD50); details: mouse, in vivo, death within 14 days
Protocol: The acute toxicity was determined with mice. The LD50, the dose leading to the death of 50% of the animals within 14 days, was calculated.

Streptococcus Aronson [13] = assay: Serial dilution test; format: cell-based; details: Streptococcus, 18-20 hours at 37° C., read-out: MIC, S.D.T., Streptococcus Aronson
Protocol: as §5
(§19) 2. Glucose broth: for Sc. Aronson and St. pyogenes Recipe see meat extract broth. After sterilization 1 weight percent of glucose is added as a sterile 50% solution.
as §7, §8, §9, §10, §11

[14] = test system: Streptococcus pyogenes At CC 86 68; assay: Serial dilution test; format: cell-based; details: Streptococcus pyogenes, ATCC8668, 18-20 hours at 37° C., read-out: MIC, S.D.T., Streptococcus pyogenes
Protocol: as §5, §19, §7, §8, §9, §10, §11

HeLa-cell culture = assay: Inhibition of HeLa cell cultures; format: cell-based; details: Homo sapiens, 72 h, 37° C. for 3 days, 5% carbon dioxide
Protocol: Measurement of the inhibition of cell cultures
HeLa-cell culture was treated with trypsin and adjusted to a cell number of 150,000 cells/ml of fresh medium. The substance was always dissolved in the same quantity of dimethyl sulfoxide and then further diluted with growth medium. 0.1 ml of the substance-dilutions were added to each well of microtiter plates and then 0.2 ml of cell suspension were added (4 wells per dilution). Several growth controls containing 0.1 ml of growth medium instead of 0.1 ml of substance dilution were put up. After careful mixing, the cultures were incubated at 37° C. for 3 days in a 5% carbon dioxide atmosphere. The reading was effected in comparison with these controls. The results were given as the percentage of the deficiency and degeneration compared to the growth control. […] The statements are referred to μg of substance per ml of total medium.

- MIC (Pityrosporum ovale): 10 µg/mL (≈ 41.6 µM)
- MIC [1]: 1000 µg/mL (≈ 4160 µM)
- MIC [2]: 5 µg/mL (≈ 20.8 µM)
- MIC (Aspergillus niger [3]): 20 µg/mL (≈ 83.1 µM)
- MIC ([4]; Candida albicans, ATCC10231, 168 h, 27° C. for 7 days, read-out: MIC, S.D.T., Candida albicans): 20 µg/mL (≈ 83.1 µM)
- MIC [5]: 250 µg/mL (≈ 1040 µM)
- MIC (Aspergillus niger [6]): 250 µg/mL (≈ 1040 µM)
- MIC [7]: 1000 µg/mL (≈ 4160 µM)
SMILES: O=C(c1cc(Cl)c(O)cc1O)C(F)(F)F [U, 2,4-Dihydroxy-5-chloro-trifluoroacetophenone]

- MIC (Pityrosporum ovale): 80 µg/mL (≈ 231 µM)
- MIC [1]: 250 µg/mL (≈ 722 µM)
- MIC [2]: 1.25 µg/mL (≈ 3.61 µM)
- MIC (Aspergillus niger [3]): 5 µg/mL (≈ 14.4 µM)
- MIC [5]: ≤ 15.6 µg/mL
- MIC (Aspergillus niger [6]): 250 µg/mL (≈ 722 µM)
- MIC [7]: 1000 µg/mL (≈ 2890 µM)
SMILES: CCCCCCCCCCc1cc(C(=O)C(F)(F)F)c(O)cc1O [W, 2,4-Dihydroxy-5-n-decyl-trifluoroacetophenone]
- Concentration with reduced growth (value in brackets), S.D.T., Candida albicans ([4]; reduced growth at this concentration): 20 µg/mL

SMILES: CCCCCCc1cc(C(=O)C(F)(F)F)c(O)cc1O [Compound E, 2,4-Dihydroxy-5-n-hexyl-trifluoroacetophenone]
- MIC (Corynebacterium acnes): 0.08 µg/mL (≈ 0.276 µM)
- MIC (Streptococcus Aronson [8]): ≤ 15.6 µg/mL
- MIC [9]: ≤ 15.6 µg/mL
- MIC [10]: 1.25 µg/mL (≈ 4.31 µM)
- MIC [11]: ≤ 15.6 µg/mL
- compatibility on the skin (skin): tolerated without irritation
- LD50 at 336 h ([12]; ip, read-out: LD50 in the mouse, i.p.): 82 mg/kg
- LD50 at 336 h ([12]; po, read-out: LD50 in the mouse, p.o.): > 3200 mg/kg
- LD50 at 336 h ([12]; sc, read-out: LD50 in the mouse, s.c.): > 4000 mg/kg
- MIC (Streptococcus Aronson [13]): 0.31 µg/mL (≈ 1.07 µM)
- MIC [14]: 0.31 µg/mL (≈ 1.07 µM)
- IC50 (HeLa-cell culture; read-out: ED50, HeLa cell culture): 5.81 µg/mL (≈ 20 µM)
- minimal effective concentration (HeLa-cell culture; read-out: Minimal inhibitory concentration, HeLa cell culture): 0.78 µg/mL
